In patent publication US20260284041A1, “PREVENTIVE OR THERAPEUTIC AGENT FOR NEURODEGENERATIVE DISEASE” (MEDILABO RFP, INC., priority 2023, published 2026):
Values after ≈ are worked out from the molar mass of the structure shown.

Assays:
C9orf72 HRE-derived RNAs = conditions: in vitro; cited from earlier work
PKR = conditions: reported in NPL 31; cited from earlier work
[1] = cited from earlier work
FTD/ALS model mice [2] = experiment: Morris water maze test after nasal rifampicin and/or resveratrol (Test Example 2); type: in vivo, mouse; conditions: 1 month, 7- to 8-month-old mice, single agents 0.04 mg/day, combination 0.02 mg + 0.02 mg/day, FIG. 10
Text: FVB/NJ-Tg(C9orf72)500Lpwr/J mice (FTD/ALS model mice) were purchased from The Jackson Laboratory (Bar Harbor, ME, USA). The mouse strain was generated as a model for the C9orf72-associated FTD/ALS expressing the human C9orf72 gene with about 500 hexanucleotide (GGGGCC) repeats using a bacterial artificial chromosome (BAC) vector. Transgenic (Tg) mice were crossed with wild-type FVB/NJcl mice, and the transgene was maintained as a heterozygote at our animal facility.
(§1) Age-matched non-Tg […] mates received only CMC.
After administration for one month, the cognitive function of the mice was assessed in the Morris water maze test as described above.

BDNF = conditions: stated in discussion, no method given; cited from earlier work
FTD/ALS model mice [3] = experiment: Immunohistochemical analysis of brain sections (Test Example 2); type: in vivo, mouse; conditions: single agents 0.04 mg/day, combination 0.02+0.02 mg/day, nasal 1 month
Procedure: as §1
After the behavioral test, each group was divided into two groups: one for immunohistochemical analysis and the other for future biochemical analysis. Immunohistochemical staining was performed as described above. For staining of double-stranded RNA-dependent protein kinase (PKR), phosphorylated TDP-43, synaptophysin, sections were boiled in 10 mM citrate buffer solution (pH6) for 30 min to expose the antigens. The sections were blocked overnight with 10% calf serum, and then the resultant sections were stained with antibodies for DNA/RNA G-quadruplex (BG4; Absolute antibody, Cleveland, UK), phospho-PKR (Thr446) (MilliporeSigma, Burlington, MA, USA), poly-GA, poly-GP (Cosmo Bio Co., Ltd., Tokyo, Japan), pSer409/410-TDP-43 (Cosmo Bio Co., Ltd.), and synaptophysin (SVP-38; Sigma-Aldrich, St. Luis, MO, USA). Only synaptophysin was stained with a biotin-labeled secondary antibody (Vector Laboratories, Burlingame, CA, USA), a horseradish peroxidase (HRP)-labeled avidin-biotin complex (Vector Laboratories), HRP substrate, diaminobenzidine (DAB), or an FITC-labeled secondary antibody (The Jackson Laboratory). […] Neuropathologies were evaluated by measuring the staining intensity or area or by counting positive puncta or cells in a constant area in each photograph using NIH ImageJ software.

[4] = system: (GGGGCC)4 oligonucleotides; experiment: Gel shift assay for G-quadruplex; type: biochemical; conditions: 1 mM rifampicin, 5 μM DNA, 100 mM KCl; FIG. 8A
Procedure: The gel shift assay to detect G-quadruplex formation was performed. Sense (GGGGCC)4, antisense (GGCCCC)4, and Control (ATGC)6 oligonucleotides were synthesized and solubilized to 100 μM in 0.89 M of Tris-borate buffer, pH8.3 containing 0.02 M of EDTA (TBE). […] The mixtures were incubated at 98° C. for 3 min and slowly cooled to room temperature. The samples were mixed with Blue/Orange Loading Dye (Promega Corporation, Madison, WI, USA) and subjected to native PAGE with 20% polyacrylamide gel (Novex TBE Gels, Invitrogen, Carlsbad, CA, USA) and TBE running buffer containing 50 mM KCl. The gels were stained with SYBR Gold nucleic acid gel stain (Invitrogen) for 10 min, and images were acquired using an ImageQuant LAS 500 image analyzer (GE Healthcare, Hino, Japan).

[5] = system: FTD/ALS model mice (C9-500 mice); experiment: Double staining for RNA foci and cytoplasmic inclusions (Test Example 1); type: in vivo, mouse; conditions: PFC and MC; nasal 0.1 mg/day for 1 month; FIG. 6
Text: To examine the formation of nuclear and cytoplasmic inclusions, the sections were double stained with antibodies to G-quadruplex and hnRNP H1 (Proteintech, Rosemont, IL, USA) without pretreatment for RNA foci, and pSer409/410-TDP-43 and amyloidogenic protein oligomers (F11G3; Sigma-Aldrich) after pretreatment at pH6 for TDP-43 oligomer inclusions. For DPR inclusions, the sections were double-stained with antibodies to poly-GA, poly-GP, poly-GR, and SQSTM1/p62 (A-6; Santa Cruz Biotechnology, Dallas, TX, USA) without pretreatment. After staining, FITC- and rhodamine-labeled secondary antibodies (Jackson Laboratory) were used. The specimens were then treated with TrueBlack Plus Lipofuscin (Biotium, Fremont, CA, USA) to quench the autofluorescence and mounted using a Vectashield vibrance antifade mounting medium with DAPI (Vector Laboratories). Images of the stained sections were taken with a BZ-X800 fluorescence microscope, and cells having inclusion bodies were counted in a certain area.
(§2) 4-and-a half to 5-month-old FTD/ALS model mice were divided into two groups. […] Non-Tg littermates were treated with CMC alone. […] After the behavioral test, each group was divided into two groups: one group for immunohistochemical analysis and the other group for future biochemical analysis. For immunohistochemical analysis, brain sections were prepared as described above, while for biochemical analysis, whole brains were removed and frozen at −80° C. until use.

[6] = system: FTD/ALS model mice (C9-500 mice); experiment: Morris water maze test after nasal rifampicin (Test Example 1); type: in vivo, mouse; conditions: nasal 0.1 mg/day for 1 month; Tg mice 4.5 to 5 months old at start; vs CMC-treated Tg (p=0.0271, FIG. 4)
Text: FVB/NJ-Tg(C9orf72)500Lpwr/J mice were purchased from The Jackson Laboratory (Bar Harbor, ME, USA). The mouse strain was generated as a model for the C9orf72-linked FTD/ALS expressing the human C9orf72 gene with 500 hexanucleotide (GGGGCC) repeats (hereinafter, it is also described as “FTD/ALS model mice”) using a bacterial artificial chromosome (BAC) vector. Transgenic (Tg) mice were crossed with wild-type FVB/NJcl mice, and the transgene was maintained as a heterozygote at the animal facility in our company.
The cognitive function of the mice was assessed in a Morris water maze test at the age of 4.5 months, and the motor function of the mice was assessed in the rotarod and inverted screen tests at the age of 4.5 months and at the age of 12 months in an above-described manner.
as §2

phospho-PKR (Thr446) = experiment: Immunohistochemical studies of phosphorylated PKR (Test Example 1); type: in vivo, mouse; conditions: PFC and MC; nasal 0.1 mg/day for 1 month; FIG. 8B
Procedure: as §2

SMILES: CC(=O)O.N [ammonium acetate]
- RNA gelation and RNA foci formation (C9orf72 HRE-derived RNAs): inhibited

SMILES: COc1cccc2c1C(=O)c1c(O)c3c(c(O)c1C2=O)C[C@@](O)(C(=O)CO)C[C@@H]3O[C@H]1C[C@H](N)[C@H](O)[C@H](C)O1 [doxorubicin]
- RNA gelation and RNA foci formation (C9orf72 HRE-derived RNAs): inhibited

SMILES: CN(C)C(=N)N=C(N)N [metformin]
- RAN translation / PKR phosphorylation and phenotype of C9-500 mice (PKR): suppress RAN translation by suppressing PKR phosphorylation

SMILES: Oc1ccc(/C=C/c2cc(O)cc(O)c2)cc1 [resveratrol, 3,5,4′-trihydroxy-trans-stilbene]
- solubility in water [1]: 30 µg/mL (≈ 131 µM)
- cognitive function, Morris water maze (FTD/ALS model mice [2]): significantly improved
- expression of BDNF in the mouse brains (BDNF): elicited
- synaptophysin levels (synaptic loss) (FTD/ALS model mice [3]; hippocampus CA2-3 region and dentate gyrus (DG), FIG. 11): significantly restored
- levels of G-quadruplex (FTD/ALS model mice [3]; prefrontal cortex, FIG. 12): significantly reduced
- levels of phosphorylated PKR (FTD/ALS model mice [3]; prefrontal cortex, FIG. 13): significantly reduced
- levels of poly-GA and poly-GP (FTD/ALS model mice [3]; prefrontal cortex, FIG. 14): significantly reduced
- levels of phosphorylated TDP-43 (FTD/ALS model mice [3]; prefrontal cortex, FIG. 15): significantly reduced

SMILES: CO[C@H]1/C=C/O[C@@]2(C)Oc3c(C)c(O)c4c(O)c(c(/C=N/N5CCN(C)CC5)c(O)c4c3C2=O)NC(=O)/C(C)=C\C=C\[C@H](C)[C@H](O)[C@@H](C)[C@@H](O)[C@@H](C)[C@H](OC(C)=O)[C@@H]1C [rifampicin, 3-(4-Methylpiperazinyliminomethyl)rifamycin SV]
- inhibition of G-quadruplex formation [4]: failed to inhibit
- DPR cytoplasmic inclusions (DPRs and p62 double positive) [5]: significantly attenuated
- TDP-43 oligomer cytoplasmic inclusions (pTDP-43 and F11G3 double positive) [5]: significantly attenuated
- formation of RNA foci (G-quadruplex and hnRNP H double positive) [5]: significantly attenuated
- cognitive function, Morris water maze (FTD/ALS model mice [2]): improved the cognitive function in the mice, but the effect was incomplete and not significant
- memory performance (cognitive function), water maze test [6]: significantly improved
- levels of phosphorylated PKR (phospho-PKR (Thr446)): significantly attenuated
